From patent publication US20240122865A1, “Methods of Protecting RNA” (Pfizer Inc., priority 2021, published 2024)

Assays:
Format in all cases: biochemical, Trichoderma atroviride
Chi18 model RNA [1] = assay: TapeStation Assay, Chi18 model RNA; set-up: Conc. chi18#1 / Conc. chi18#2: unit not given here; conditions: for % Control N = 1 / % Control N = 2 / % Control Avg.: Chi18 RNA, 20 mM amino acids, 50 mM CAPS pH 11, 50° C. 15 min; for % Control N = 1 / % Control N = 2: vs Time 0; for % Control Avg.: vs Time 0, Avg N=2; for Conc. chi18#1 / Conc. chi18#2: intact Chi18 RNA after 15 min at 50° C.; for Conc. chi18#1: 20 mM amino acids in 50 mM CAPS pH 11, run #1; for Conc. chi18#2: 20 mM amino acids in 50 mM CAPS pH 11, run #2
Protocol: These assays were performed with amino acids and compared to a no-degradation baseline control to gauge degree of protection imparted by the amino acid. Multiple functional assay approaches were used where differing endpoints were measured including a droplet digital PCR (ddPCR) assay where intact RNA sequence was quantitated, a size exclusion base hydrolysis degradation assay that used a size exclusion column to determine the degree of degradation occurring to an mRNA construct, and finally, a TapeStation assay that utilizes capillary electrophoresis and optical detection to measure intact RNA. […] Affinity selection by mass spectrometry (ASMS), native electrospray ionization mass spectrometry (nESI-MS) and nuclear magnetic resonance (NMR) may be used as several complementary approaches to ascertain compound binding to RNA. The latter techniques utilize MS to measure mass of bound compound alone (ASMS), or mass of RNA and bound compound (nESI-MS). The nESI-MS and NMR studies may be conducted to provide direct analytical quantification of resulting complex via measurement of mass (nESI-MS) or chemical shifts (NMR). The ASMS experiment is conducted to determine saturation binding of the compound to RNA where resulting apparent binding constants (KD,App) may be generated. Further descriptions of the functional and binding assays are provided in the section below.
In principle, samples are loaded to the instrument where electrophoresis separates component RNA's on the basis of mass, and subsequently analyzes these optically as they travel through the capillary.
RNA samples were diluted to the appropriate concentration to fall within the linear range of detection for the RNA ScreenTape Assay. Model Chi18 or FgenL RNAs were diluted to 50 ng/μL in 50 mM CAPS buffer pH 11. Amino acid stocks were made up in 50 mM CAPS pH 11 and re-adjusted to >pH 11 after solubilization. […] The samples were aliquoted to PCR tubes for each time point (Time 0 or 15 minutes). Degradation reaction: Samples were incubated at 50° C. for 0 to 15 minutes in a thermocycler, removed at the appropriate time point and placed on ice. Time 0 samples remained on ice.

FgenL mRNA construct = assay: Size Exclusion Base Hydrolysis Degradation Assay, FgenL; conditions: 25 mM amino acid; for T0 R1 peak area at 250 nm: FgenL 0.1 mg/mL, 50 mM CAPS, T=0, replicate 1; for T2 Avg, peak area as percentage of T=0 / T2 R1 peak area at 250 nm / T10 Avg, peak area as percentage of T=0 / T10 R1 peak area at 250 nm / T24 Avg, peak area as percentage of T=0 / T24 R1 peak area at 250 nm / T0 Avg, peak area as percentage of T=0: FgenL; for T2 Avg, peak area as percentage of T=0 / T2 R1 peak area at 250 nm / T10 Avg, peak area as percentage of T=0 / T10 R1 peak area at 250 nm / T24 Avg, peak area as percentage of T=0 / T24 R1 peak area at 250 nm: 50 mM CAPS pH 11, room temperature; for T2 Avg, peak area as percentage of T=0 / T2 R1 peak area at 250 nm: 2 hrs; for T2 R1 peak area at 250 nm / T10 R1 peak area at 250 nm / T24 R1 peak area at 250 nm: replicate 1; for T10 Avg, peak area as percentage of T=0 / T10 R1 peak area at 250 nm: 10 hrs; for T24 Avg, peak area as percentage of T=0 / T24 R1 peak area at 250 nm: 24 hrs; for T0 Avg, peak area as percentage of T=0: T=0 (reference)
Protocol: (§1) Basic assay procedure: RNA samples were diluted to 1.0 mg/mL in DNAase/RNAase free water. Amino acids were dissolved in water to a stock solution of 100 mM and a solution of 500 mM CAPS pH 11 was used. The two mRNA constructs tested were FgenL and Chi18. Each individual sample volume was 50 μL. To determine the amount of 1 M NaOH needed to adjust the final pH to 11.0 after the addition of all sample components, the sample volume was increased 100 fold (5 mL), the volume of 1 M NaOH recorded and this value was translated back down to the 50 μL sample volume.
(§2) The mRNA and amino acid were allowed to incubate for one hour prior to the addition of CAPS pH 11. All steps of the assay were conducted at room temperature.
(§3) Degradation reaction: After the CAPS addition, the samples were injected onto the Waters H-Class UPLC system to record the first timepoint, T=O. This resulting chromatogram was processed by integrating the area of absorbance at 250 nm for the mRNA construct. Immediately following this timepoint, the pH was adjusted to 11. Subsequent time points (2 hrs, 10 hrs, and 24 hrs) recorded the Absorbance Units (peak area) at 250 nm as a percentage of the peak area determined at T=O. Integration of the chromatogram for subsequent timepoints was conducted by analyzing the area of absorbance at 250 nm contained within the same time window in which the peak eluted in T=0 for the 100% intact mRNA.

Chi18 mRNA construct = assay: Size Exclusion Base Hydrolysis Degradation Assay, Chi18; conditions: for T0 R1 peak area at 250 nm: Chi18 0.1 mg/mL, 25 mM amino acid, 50 mM CAPS, T=0, replicate 1; for T2 Avg, peak area as percentage of T=0 / T2 R1 peak area at 250 nm / T10 Avg, peak area as percentage of T=0 / T10 R1 peak area at 250 nm / T24 Avg, peak area as percentage of T=0 / T24 R1 peak area at 250 nm / T0 Avg, peak area as percentage of T=0: Chi18, 25 mM amino acid; for T2 Avg, peak area as percentage of T=0 / T2 R1 peak area at 250 nm / T10 Avg, peak area as percentage of T=0 / T10 R1 peak area at 250 nm / T24 Avg, peak area as percentage of T=0 / T24 R1 peak area at 250 nm: 50 mM CAPS pH 11, room temperature; for T2 Avg, peak area as percentage of T=0 / T2 R1 peak area at 250 nm: 2 hrs; for T2 R1 peak area at 250 nm / T10 R1 peak area at 250 nm / T24 R1 peak area at 250 nm: replicate 1; for T10 Avg, peak area as percentage of T=0 / T10 R1 peak area at 250 nm: 10 hrs; for T24 Avg, peak area as percentage of T=0 / T24 R1 peak area at 250 nm: 24 hrs; for T0 Avg, peak area as percentage of T=0: T=0 (reference)
Protocol: as §1, §2, §3

Chi18 model RNA [2] = assay: Droplet Digital Polymerase Chain Reaction (ddPCR) Assay, Chi18; conditions: percent protection, pH 11.0, 30° C., 16 hours, n = 2
Protocol: (§4) The ddPCR assays measure RNA integrity by converting intact RNA to cDNA by reverse transcription, then performing digital PCR in thousands of nanoliter-sized droplets for each sample. PCR is performed within each droplet, which allows for more sensitive detection of subtle changes in RNA concentration compared to traditional PCR or qPCR. Additionally, primers/probes specific to the 5′ end of the RNA/cDNA transcript(s) are used to assess fragment integrity—e.g. degraded RNA will have fewer 5′ positive droplets. The BioRad QX200 Droplet Digital PCR System was used for the ddPCR workflow.
(§5) Basic assay procedure: RNA samples (Chi18 or FgenL fragments) were diluted to 25 fg/μL or 10 fg/μL, respectively, in 50 mM […] buffer pH 11.0. Amino acid stocks were made up in 50 mM CAPS buffer, pH 11.0 and subsequently re-adjusted to pH 11.0, post solubilization. Amino acid stocks were tested in a dose-response format to determine EC50. An amino acid dilution plate containing a ˜300 mM (or appropriate) top-concentration of amino acid in 50 mM CAPS buffer was serially (half-log) diluted for 10 times. 0.6 μL of this compound dilution plate was spotted into a 96-well PCR plate (Thermo). Sample RNAs were added (6 μL) and incubated with test amino acid as described below.
(§6) Degradation reaction: Treated RNAs were incubated for 16 hours at 30° C. for Chi18 samples or 44° C. for FgenL samples. Upon completion of the degradation reaction, cDNA was made from the intact RNA by Reverse Transcription and ddPCR run for each sample (96 well plates). Positive 5′ droplet values were divided by the total accepted droplet values for each sample and a ratio value generated for each sample.
(§7) EC50 was determined by using a four parameter logistic equation: Y=A+((B−A)/(1+(C/X)D)); where Y is percent protection, X is compound concentration, A and B are minimum and maximum asymptotes, respectively, C is EC50, and D is Hill slope.

FgenL model RNA = conditions: percent protection, pH 11.0, 44° C., 16 hours, n = 2
Protocol: as §4, §5, §6, §7

SMILES	% Control N = 1 (Chi18 model RNA [1]) [%]	% Control N = 2 (Chi18 model RNA [1]) [%]	% Control Avg. (Chi18 model RNA [1]) [%]	Conc. chi18#1 (Chi18 model RNA [1])	Conc. chi18#2 (Chi18 model RNA [1])	T0 R1 peak area at 250 nm (FgenL mRNA construct)	T2 Avg, peak area as percentage of T=0 (FgenL mRNA construct) [%]	T2 R1 peak area at 250 nm (FgenL mRNA construct)	T10 Avg, peak area as percentage of T=0 (FgenL mRNA construct) [%]	T10 R1 peak area at 250 nm (FgenL mRNA construct)	T24 Avg, peak area as percentage of T=0 (FgenL mRNA construct) [%]	T24 R1 peak area at 250 nm (FgenL mRNA construct)	T0 Avg, peak area as percentage of T=0 (FgenL mRNA construct) [%]	T0 R1 peak area at 250 nm (Chi18 mRNA construct)	T2 Avg, peak area as percentage of T=0 (Chi18 mRNA construct) [%]	T2 R1 peak area at 250 nm (Chi18 mRNA construct)	T10 Avg, peak area as percentage of T=0 (Chi18 mRNA construct) [%]	T10 R1 peak area at 250 nm (Chi18 mRNA construct)	T24 Avg, peak area as percentage of T=0 (Chi18 mRNA construct) [%]	T24 R1 peak area at 250 nm (Chi18 mRNA construct)	other results
C[C@H](N)C(=O)O [Alanine]	35.3	51.4	43.3	18.8	27.2	17478	44.3	7051	0.0	0	0.0	0	100.0	19606	71.6	13211	18.1	2730	0.0	0	T0 Avg, peak area as percentage of T=0 (Chi18 mRNA construct): 100.0%; EC50 (Chi18 model RNA [2]): > 30 mM; EC50 (FgenL model RNA): > 30 mM
N=C(N)NCCC[C@H](N)C(=O)O [Arginine]	5.2	4.7	4.9	2.78	2.46	14624	0.0	0	0.0	0	0.0	0	100.0	20698	76.7	15655	0.0	0	0.0	0	T0 Avg, peak area as percentage of T=0 (Chi18 mRNA construct): 100.0%; EC50 (Chi18 model RNA [2]): 7.6 mM; EC50 (FgenL model RNA): > 30 mM
NC(=O)C[C@H](N)C(=O)O [Asparagine]	21.0	26.7	23.8	11.2	14.1	14320	35.9	6791	0.0	0	0.0	0	100.0	25494	62.7	12115	0.0	0	0.0	0	T0 Avg, peak area as percentage of T=0 (Chi18 mRNA construct): 100.0%; EC50 (Chi18 model RNA [2]): 4.9 mM
N[C@@H](CC(=O)O)C(=O)O [Aspartic acid]	52.5	53.5	53.0	28	28.3	17497	0.0	0	0.0	0	0.0	0	100.0	11079	69.4	7643	0.0	0	0.0	0	T0 Avg, peak area as percentage of T=0 (Chi18 mRNA construct): 100.0%; EC50 (Chi18 model RNA [2]): 6.1 mM
